Results published in paper PMC5218480 (PLoS ONE, 2017).

Test system: MV-4-11 cells
Experiment: Gene expression microarray analysis (Affymetrix PrimeView) and GSEA
Type: cell-based, human
Set-up: RFU PODN (11730768_x_at) / Fold change /veh PODN (11730768_x_at) / RFU LINC00158 (11744669_a_at) / Fold change /veh LINC00158 (11744669_a_at) / RFU DUSP10 (11751237_a_at) / Fold change /veh DUSP10 (11751237_a_at) / RFU ID3 (11757404_x_at) / Fold change /veh ID3 (11757404_x_at) / RFU PLEKHG5 (11737974_s_at) / Fold change /veh PLEKHG5 (11737974_s_at) / RFU LRRC4B (11730491_at) / Fold change /veh LRRC4B (11730491_at) / RFU GIMAP4 (11747438_a_at) / Fold change /veh GIMAP4 (11747438_a_at) / RFU KRT8 (11758183_x_at) / Fold change /veh KRT8 (11758183_x_at) / RFU CNN1 (11734310_a_at) / Fold change /veh CNN1 (11734310_a_at) / RFU VPS37D (11726825_at) / Fold change /veh VPS37D (11726825_at) / RFU C10orf10 (11716522_x_at) / Fold change /veh C10orf10 (11716522_x_at) / RFU KIR2DL2 /// KIR2DL4 /// KIR2DL5A /// KIR2DL5B /// KIR2DS1 /// KIR2DS2 /// KIR2DS3 /// KIR2DS4 /// KIR3DL3 /// KIR3DL3 /// KIR3DS1 (11738374_at) / Fold change /veh KIR2DL2 /// KIR2DL4 /// KIR2DL5A /// KIR2DL5B /// KIR2DS1 /// KIR2DS2 /// KIR2DS3 /// KIR2DS4 /// KIR3DL3 /// KIR3DL3 /// KIR3DS1 (11738374_at) / RFU C1QL1 (11718748_at) / Fold change /veh C1QL1 (11718748_at) / RFU TMPRSS4 (11747572_a_at) / Fold change /veh TMPRSS4 (11747572_a_at) / RFU HAMP (11756126_x_at) / Fold change /veh HAMP (11756126_x_at) / RFU RNFT2 (11725882_a_at) / Fold change /veh RNFT2 (11725882_a_at) / RFU NR4A2 (11747474_a_at) / Fold change /veh NR4A2 (11747474_a_at) / RFU ABCC12 (11746883_a_at) / Fold change /veh ABCC12 (11746883_a_at) / RFU TMEM136 (11760407_x_at) / Fold change /veh TMEM136 (11760407_x_at) / RFU CLDN22 /// WWC2 (11732394_at) / Fold change /veh CLDN22 /// WWC2 (11732394_at) / RFU HLA-DPB1 (11760878_x_at) / Fold change /veh HLA-DPB1 (11760878_x_at) / RFU SPINT1 (11716480_a_at) / Fold change /veh SPINT1 (11716480_a_at) / RFU GAP43 (11754022_s_at) / Fold change /veh GAP43 (11754022_s_at) / RFU A4GNT (11735810_at) / Fold change /veh A4GNT (11735810_at) / RFU PRB3 (11715151_x_at) / Fold change /veh PRB3 (11715151_x_at) / RFU TUBB4B (11761932_at) / Fold change /veh TUBB4B (11761932_at) / RFU CAPN14 (11732068_a_at) / Fold change /veh CAPN14 (11732068_a_at) / RFU TMCC2 (11721928_a_at) / Fold change /veh TMCC2 (11721928_a_at) / RFU IRGQ (11745062_a_at) / Fold change /veh IRGQ (11745062_a_at) / RFU FAM174B (11720279_a_at) / Fold change /veh FAM174B (11720279_a_at) / RFU TMPRSS4 (11748680_a_at) / Fold change /veh TMPRSS4 (11748680_a_at) / RFU FAM212B (11763350_a_at) / Fold change /veh FAM212B (11763350_a_at) / RFU PLEKHG5 (11743358_a_at) / Fold change /veh PLEKHG5 (11743358_a_at) / RFU ZSCAN30 (11745921_a_at) / Fold change /veh ZSCAN30 (11745921_a_at) / RFU CMKLR1 (11741424_a_at) / Fold change /veh CMKLR1 (11741424_a_at) / RFU LOC101060620 /// MAPK8IP1 (11723275_at) / Fold change /veh LOC101060620 /// MAPK8IP1 (11723275_at) / RFU SPTSSB (11747773_x_at) / Fold change /veh SPTSSB (11747773_x_at) / RFU PRSS12 (11739890_at) / Fold change /veh PRSS12 (11739890_at) / RFU BIN1 (11741810_x_at) / Fold change /veh BIN1 (11741810_x_at) / RFU WNT11 (11732464_a_at) / Fold change /veh WNT11 (11732464_a_at) / RFU C10orf10 (11716521_a_at) / Fold change /veh C10orf10 (11716521_a_at) / RFU C5orf56 (11738089_at) / Fold change /veh C5orf56 (11738089_at) / RFU CYB561 (11721691_x_at) / Fold change /veh CYB561 (11721691_x_at) / RFU ANKRD19P (11752326_a_at) / Fold change /veh ANKRD19P (11752326_a_at) / RFU OR2T12 /// OR2T33 /// OR2T8 (11738714_s_at) / Fold change /veh OR2T12 /// OR2T33 /// OR2T8 (11738714_s_at) / RFU VCAN (11748164_a_at) / Fold change /veh VCAN (11748164_a_at) / RFU JSRP1 (11732532_at) / Fold change /veh JSRP1 (11732532_at) / RFU KRTAP10-11 (11738290_x_at) / Fold change /veh KRTAP10-11 (11738290_x_at) / RFU MYO3A (11730013_a_at) / Fold change /veh MYO3A (11730013_a_at) / RFU EBF3 (11725865_a_at) / Fold change /veh EBF3 (11725865_a_at) / RFU CAMK2N1 (11719241_x_at) / Fold change /veh CAMK2N1 (11719241_x_at) / RFU C5orf56 (11738088_a_at) / Fold change /veh C5orf56 (11738088_a_at) / RFU OLFML3 (11715873_a_at) / Fold change /veh OLFML3 (11715873_a_at) / RFU LOC100653217 /// NTM (11731650_a_at) / Fold change /veh LOC100653217 /// NTM (11731650_a_at) / RFU MAPK11 (11762145_a_at) / Fold change /veh MAPK11 (11762145_a_at) / RFU FIZ1 (11724087_x_at) / Fold change /veh FIZ1 (11724087_x_at) / RFU OASL (11726364_x_at) / Fold change /veh OASL (11726364_x_at) / RFU SOX15 (11748057_x_at) / Fold change /veh SOX15 (11748057_x_at) / RFU CD79A (11719716_a_at) / Fold change /veh CD79A (11719716_a_at) / RFU HIST1H1D (11736915_at) / Fold change /veh HIST1H1D (11736915_at) / RFU CASKIN2 (11723855_a_at) / Fold change /veh CASKIN2 (11723855_a_at) / RFU LOC730098 (11760151_x_at) / Fold change /veh LOC730098 (11760151_x_at) / RFU OR4N2 (11742367_at) / Fold change /veh OR4N2 (11742367_at) / RFU PRRT2 (11749266_a_at) / Fold change /veh PRRT2 (11749266_a_at) / RFU SNX32 (11753110_a_at) / Fold change /veh SNX32 (11753110_a_at) / RFU CDHR5 (11726645_a_at) / Fold change /veh CDHR5 (11726645_a_at) / RFU RCAN1 (11760418_a_at) / Fold change /veh RCAN1 (11760418_a_at) / RFU FAM167A (11723789_a_at) / Fold change /veh FAM167A (11723789_a_at) / RFU FAM26E (11764081_at) / Fold change /veh FAM26E (11764081_at) / RFU ISYNA1 (11749810_s_at) / Fold change /veh ISYNA1 (11749810_s_at) / RFU ACY1 (11761880_at) / Fold change /veh ACY1 (11761880_at) / RFU 11764098_at / Fold change /veh 11764098_at / RFU SAMD14 (11745864_x_at) / Fold change /veh SAMD14 (11745864_x_at) / RFU NPB (11741838_a_at) / Fold change /veh NPB (11741838_a_at) / RFU TMPRSS6 (11731388_a_at) / Fold change /veh TMPRSS6 (11731388_a_at) / RFU KRTAP10-2 (11738614_at) / Fold change /veh KRTAP10-2 (11738614_at) / RFU ARHGAP8 /// PRR5-ARHGAP8 (11727945_x_at) / Fold change /veh ARHGAP8 /// PRR5-ARHGAP8 (11727945_x_at) / RFU KRTAP5-7 /// NADSYN1 (11734609_at) / Fold change /veh KRTAP5-7 /// NADSYN1 (11734609_at) / RFU RASL12 (11751679_a_at) / Fold change /veh RASL12 (11751679_a_at) / RFU CDKN2B (11736163_a_at) / Fold change /veh CDKN2B (11736163_a_at) / RFU PRF1 (11729649_at) / Fold change /veh PRF1 (11729649_at) / RFU, ZNF638 /// ZNF638-IT1 / Fold change vs veh, ZNF638 /// ZNF638-IT1 / RFU, PANK3 / Fold change vs veh, PANK3 / RFU, SH3YL1 / Fold change vs veh, SH3YL1 / RFU, ZEB2 / Fold change vs veh, ZEB2 / RFU, NRIP1 / Fold change vs veh, NRIP1 / RFU, PTTG1IP / Fold change vs veh, PTTG1IP / RFU, CAPN2 / Fold change vs veh, CAPN2 / RFU, MED14 / Fold change vs veh, MED14 / RFU, SNORA58 / Fold change vs veh, SNORA58 / RFU, C1orf63 / Fold change vs veh, C1orf63 / RFU, LRRFIP1 / Fold change vs veh, LRRFIP1 / RFU, NDUFAF7 / Fold change vs veh, NDUFAF7 / RFU, SLC12A2 / Fold change vs veh, SLC12A2 / RFU, IBTK / Fold change vs veh, IBTK / RFU, ESF1 / Fold change vs veh, ESF1 / Fold change vs veh, TMEM50B / RFU, TAOK1 / Fold change vs veh, TAOK1 / RFU, ACBD3 / Fold change vs veh, ACBD3 / RFU, TMA16 / Fold change vs veh, TMA16 / RFU, RWDD3 / Fold change vs veh, RWDD3 / RFU, BCAT1 / Fold change vs veh, BCAT1 / RFU, EDEM3 / Fold change vs veh, EDEM3 / RFU, TMEM33 / Fold change vs veh, TMEM33 / RFU, WDR75 / Fold change vs veh, WDR75 / RFU, AHCTF1 / Fold change vs veh, AHCTF1 / RFU, TFRC / Fold change vs veh, TFRC / RFU, ZDHHC17 / Fold change vs veh, ZDHHC17 / RFU, NOM1 / Fold change vs veh, NOM1 / RFU, ARL8B / Fold change vs veh, ARL8B / RFU, ZBTB11 / Fold change vs veh, ZBTB11 / RFU, TAMM41 / Fold change vs veh, TAMM41 / RFU, KIAA1704 /// LOC100996395 / Fold change vs veh, KIAA1704 /// LOC100996395 / RFU, ING1 / Fold change vs veh, ING1 / RFU, TRMT61B / Fold change vs veh, TRMT61B / RFU, FUBP3 / Fold change vs veh, FUBP3 / RFU, TP53 / Fold change vs veh, TP53 / RFU, TNKS2 / Fold change vs veh, TNKS2 / RFU, ZFP14 / Fold change vs veh, ZFP14 / RFU, ACTR2 / Fold change vs veh, ACTR2 / RFU, PPP3R1 / Fold change vs veh, PPP3R1 / RFU, PIK3R1 / Fold change vs veh, PIK3R1 / RFU, HNRNPA1 / Fold change vs veh, HNRNPA1 / RFU, RNF170 / Fold change vs veh, RNF170 / RFU, ZNF28 / Fold change vs veh, ZNF28 / RFU, RNGTT / Fold change vs veh, RNGTT / RFU, OGT / Fold change vs veh, OGT / RFU, BRD1 / Fold change vs veh, BRD1 / RFU, MARS / Fold change vs veh, MARS / RFU, ZNF655 / Fold change vs veh, ZNF655 / RFU, FAHD1 / Fold change vs veh, FAHD1 / RFU, BDP1 / Fold change vs veh, BDP1 / RFU, LRRCC1 / Fold change vs veh, LRRCC1 / RFU, ARID1A / Fold change vs veh, ARID1A / RFU, ZNF146 / Fold change vs veh, ZNF146 / RFU, ZNF330 / Fold change vs veh, ZNF330 / RFU, GPN3 / Fold change vs veh, GPN3 / RFU, C9orf123 / Fold change vs veh, C9orf123 / RFU, N4BP2L2 / Fold change vs veh, N4BP2L2 / RFU, ARFIP1 / Fold change vs veh, ARFIP1 / RFU, FAM179B / Fold change vs veh, FAM179B / RFU, BCL10 / Fold change vs veh, BCL10 / RFU, UHRF1BP1L / Fold change vs veh, UHRF1BP1L / RFU, BET1 / Fold change vs veh, BET1 / RFU, CNOT2 / Fold change vs veh, CNOT2 / RFU, ZNF268 / Fold change vs veh, ZNF268 / Fold change vs veh, ZNF507 / RFU, DGCR2 / Fold change vs veh, DGCR2 / RFU, WDSUB1 / Fold change vs veh, WDSUB1 / Fold change vs veh, HSP90B1 /// MIR3652 / RFU, ADSS / Fold change vs veh, ADSS / RFU, GK / Fold change vs veh, GK / RFU, ZNF148 / Fold change vs veh, ZNF148 / RFU, TAF9 / Fold change vs veh, TAF9 / RFU, SLC1A5 / Fold change vs veh, SLC1A5 / RFU, SLMO2 / Fold change vs veh, SLMO2 / RFU, ABCC4 / Fold change vs veh, ABCC4 / RFU, LOC101060439 /// RAP1B / Fold change vs veh, LOC101060439 /// RAP1B / RFU, RFX7 / Fold change vs veh, RFX7 / RFU, GTPBP10 / Fold change vs veh, GTPBP10 / RFU, CNEP1R1 / Fold change vs veh, CNEP1R1 / RFU, BIVM-ERCC5 /// ERCC5 / Fold change vs veh, BIVM-ERCC5 /// ERCC5 / RFU, ILF3 / Fold change vs veh, ILF3 / RFU 11762660_at / Fold change /veh 11762660_at / RFU VCAN (11757783_s_at) / Fold change /veh VCAN (11757783_s_at) / RFU DDX43 (11728927_at) / Fold change /veh DDX43 (11728927_at) / RFU KRT8 (11758188_x_at) / Fold change /veh KRT8 (11758188_x_at) / RFU NKD1 (11759106_at) / Fold change /veh NKD1 (11759106_at) / RFU SRD5A1 (11742802_a_at) / Fold change /veh SRD5A1 (11742802_a_at) / RFU TPSAB1 /// TPSB2 (11721975_s_at) / Fold change /veh TPSAB1 /// TPSB2 (11721975_s_at) / RFU GSTM3 (11746129_a_at) / Fold change /veh GSTM3 (11746129_a_at) / RFU IL23R (11737362_x_at) / Fold change /veh IL23R (11737362_x_at) / RFU TMEM51 (11727254_a_at) / Fold change /veh TMEM51 (11727254_a_at) / RFU PIWIL2 (11732686_x_at) / Fold change /veh PIWIL2 (11732686_x_at) / RFU ORM1 (11744905_x_at) / Fold change /veh ORM1 (11744905_x_at) / RFU CCDC152 (11743942_at) / Fold change /veh CCDC152 (11743942_at) / RFU ECM1 (11717891_a_at) / Fold change /veh ECM1 (11717891_a_at) / RFU IL23R (11748794_a_at) / Fold change /veh IL23R (11748794_a_at) / RFU TNFAIP8L3 (11732012_x_at) / Fold change /veh TNFAIP8L3 (11732012_x_at) / RFU MBOAT4 (11741988_at) / Fold change /veh MBOAT4 (11741988_at) / RFU 11764193_at / Fold change /veh 11764193_at / RFU TMEM53 (11763286_at) / Fold change /veh TMEM53 (11763286_at) / RFU MAGEB2 (11727129_at) / Fold change /veh MAGEB2 (11727129_at) / RFU TMEM200A (11744735_a_at) / Fold change /veh TMEM200A (11744735_a_at) / RFU CCDC152 (11751479_a_at) / Fold change /veh CCDC152 (11751479_a_at) / RFU FAM211A (11726209_a_at) / Fold change /veh FAM211A (11726209_a_at) / RFU RGS16 (11746705_a_at) / Fold change /veh RGS16 (11746705_a_at) / RFU VCAN (11755009_s_at) / Fold change /veh VCAN (11755009_s_at) / RFU RHOB (11743442_s_at) / Fold change /veh RHOB (11743442_s_at) / RFU RGS16 (11720943_a_at) / Fold change /veh RGS16 (11720943_a_at) / RFU RGS16 (11720944_at) / Fold change /veh RGS16 (11720944_at) / RFU, VPS4B / Fold change vs veh, VPS4B / RFU, CREB1 / Fold change vs veh, CREB1 / RFU, DNAJC13 / Fold change vs veh, DNAJC13 / RFU, GNAQ / Fold change vs veh, GNAQ / RFU, CDK5R1 / Fold change vs veh, CDK5R1 / RFU, ZRANB3 / Fold change vs veh, ZRANB3 / RFU, CUL4A / Fold change vs veh, CUL4A / RFU, CCNY / Fold change vs veh, CCNY / RFU, UFL1 / Fold change vs veh, UFL1 / RFU, COG3 / Fold change vs veh, COG3 / RFU, DIAPH2 / Fold change vs veh, DIAPH2 / RFU, SKA2 / Fold change vs veh, SKA2 / RFU, AFF3 / Fold change vs veh, AFF3 / RFU, LMF1 / Fold change vs veh, LMF1 / RFU, IPO11 / Fold change vs veh, IPO11 / RFU, DFFB / Fold change vs veh, DFFB / RFU, FOXP1 / Fold change vs veh, FOXP1 / RFU, CARD8 / Fold change vs veh, CARD8 / RFU, STRN3 / Fold change vs veh, STRN3 / RFU, ADK / Fold change vs veh, ADK / RFU, RASSF2 / Fold change vs veh, RASSF2 / RFU, WIPF1 / Fold change vs veh, WIPF1 / RFU, LARP1B / Fold change vs veh, LARP1B / RFU, RASA1 / Fold change vs veh, RASA1 / RFU, RB1 / Fold change vs veh, RB1 / RFU, PPFIA1 / Fold change vs veh, PPFIA1 / RFU, MAT2A / Fold change vs veh, MAT2A / RFU, CCT5 / Fold change vs veh, CCT5 / RFU, WDR92 / Fold change vs veh, WDR92 / RFU, CUX1 / Fold change vs veh, CUX1 / RFU, TTC7A / Fold change vs veh, TTC7A / RFU, TMEM135 / Fold change vs veh, TMEM135 / RFU, DEPTOR / Fold change vs veh, DEPTOR / RFU, CPM / Fold change vs veh, CPM / RFU, DNAJB6 / Fold change vs veh, DNAJB6 / RFU, CACNA2D3 / Fold change vs veh, CACNA2D3 / RFU, DTX4 / Fold change vs veh, DTX4 / RFU, TFCP2 / Fold change vs veh, TFCP2 / RFU, GMCL1 /// GMCL1P1 / Fold change vs veh, GMCL1 /// GMCL1P1 / RFU, AEBP2 / Fold change vs veh, AEBP2 / RFU, SNHG1 /// SNORD22 /// SNORD25 /// SNORD26 /// SNORD27 /// SNORD28 /// SNORD29 /// SNORD31 / Fold change vs veh, SNHG1 /// SNORD22 /// SNORD25 /// SNORD26 /// SNORD27 /// SNORD28 /// SNORD29 /// SNORD31 / Fold change (Aza/veh), C12orf56 (ProbeSet 11735607_a_at) / Fold change (ACY-1035/veh), C12orf56 (ProbeSet 11735607_a_at) / Fold change (Aza/veh), FGFR1OP (ProbeSet 11751329_s_at) / Fold change (ACY-1035/veh), FGFR1OP (ProbeSet 11751329_s_at) / Fold change (Aza/veh), VPS36 (ProbeSet 11739960_a_at) / Fold change (ACY-1035/veh), VPS36 (ProbeSet 11739960_a_at) / RFU SYPL1 (11715823_x_at) / Fold change /veh SYPL1 (11715823_x_at) / RFU IGFBP7 (11715501_s_at) / Fold change /veh IGFBP7 (11715501_s_at) / RFU REEP3 (11722064_at) / Fold change /veh REEP3 (11722064_at) / RFU IGLL1 (11728026_x_at) / Fold change /veh IGLL1 (11728026_x_at): dose or concentration left out as unconfirmed
Settings: ProbeSet 11729173_a_at; LIST D

Nc1ncn([C@@H]2O[C@H](CO)[C@@H](O)[C@H]2O)c(=O)n1 [azacitidine]
Fold change vs veh, SKA2: 0.81
